In publication PMC3399817 (PLoS ONE, 2012):

Assays:
Assay in all cases: KINOMEscan
Type in all cases: binding
ACVR2B = molecular target: T1, ACVR2B (Homo sapiens, UniProt Q13705); details: 1 uM
T1 construct: purchased Ambit KINOMEscan (DiscoverX)
Outline: (§1)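 Kinases were scored for inhibited substrate binding in the presence of 1 μM compound; this served as the first-pass selectivity screen.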

ADCK3 = molecular target: T2, ADCK3 (Homo sapiens, UniProt Q8NI60); details: ADCK3, 1 uM
T2 construct: purchased Ambit KINOMEscan (DiscoverX)
Outline: as §1

AKT2 = molecular target: T3, AKT2 (Homo sapiens, UniProt P31751); details: AKT2, 1 uM
T3 construct: purchased Ambit KINOMEscan (DiscoverX)
Outline: as §1

ASK2 = molecular target: T4, ASK2 (Homo sapiens, UniProt O95382); details: ASK2, 1 uM
T4 construct: purchased Ambit KINOMEscan (DiscoverX)
Outline: as §1

AURKB = molecular target: T5, AURKB (Homo sapiens, UniProt Q96GD4); details: 1 uM
T5 construct: purchased Ambit KINOMEscan (DiscoverX)
Outline: as §1

AXL = molecular target: T6, AXL (Homo sapiens, UniProt P30530); details: 1 uM
T6 construct: purchased Ambit KINOMEscan (DiscoverX)
Outline: as §1

BTK = molecular target: T7, BTK (Homo sapiens, UniProt Q06187); details: 1 uM
T7 construct: purchased Ambit KINOMEscan (DiscoverX)
Outline: as §1

CDC2L2 = molecular target: T8, CDC2L2 (Homo sapiens, UniProt Q9UQ88); details: CDC2L2, 1 uM
T8 construct: purchased Ambit KINOMEscan (DiscoverX)
Outline: as §1

CDK11 = molecular target: T9, CDK11 (Homo sapiens, UniProt Q9BWU1); details: CDK11, 1 uM
T9 construct: purchased Ambit KINOMEscan (DiscoverX)
Outline: as §1

CSNK1G1 = molecular target: T10, CSNK1G1 (Homo sapiens, UniProt Q9HCP0); details: CSNK1G1, 1 uM
T10 construct: purchased Ambit KINOMEscan (DiscoverX)
Outline: as §1

DRAK2 = molecular target: T11, DRAK2 (Homo sapiens, UniProt O94768); details: DRAK2, 1 uM
T11 construct: purchased Ambit KINOMEscan (DiscoverX)
Outline: as §1

DYRK2 = molecular target: T12, DYRK2 (Homo sapiens, UniProt Q92630); details: DYRK2, 1 uM
T12 construct: purchased Ambit KINOMEscan (DiscoverX)
Outline: as §1

EGFR(G719S) = molecular target: T13, EGFR(G719S) (Homo sapiens, UniProt P00533, G719S); details: 1 uM
T13 construct: purchased Ambit KINOMEscan (DiscoverX)
Outline: as §1

EPHA6 = molecular target: T14, EPHA6 (Homo sapiens, UniProt Q9UF33); details: EPHA6, 1 uM
T14 construct: purchased Ambit KINOMEscan (DiscoverX)
Outline: as §1

ERK5 = molecular target: T15, ERK5 (Homo sapiens, UniProt Q13164); details: ERK5, 1 uM
T15 construct: purchased Ambit KINOMEscan (DiscoverX)
Outline: as §1

FES = molecular target: T16, FES (Homo sapiens, UniProt P07332); details: 1 uM
T16 construct: purchased Ambit KINOMEscan (DiscoverX)
Outline: as §1

FLT3(D835H) = molecular target: T17, FLT3(D835H) (Homo sapiens, UniProt P36888, D835H); details: 1 uM
T17 construct: purchased Ambit KINOMEscan (DiscoverX)
Outline: as §1

HUNK = molecular target: T18, HUNK (Homo sapiens, UniProt P57058); details: 1 uM
T18 construct: purchased Ambit KINOMEscan (DiscoverX)
Outline: as §1

JNK3 = molecular target: T19, JNK3 (Homo sapiens, UniProt P53779); details: JNK3, 1 uM
T19 construct: purchased Ambit KINOMEscan (DiscoverX)
Outline: as §1

KIT(V559D) = molecular target: T20, KIT(V559D) (Homo sapiens, UniProt P10721, V559D); details: 1 uM
T20 construct: purchased Ambit KINOMEscan (DiscoverX)
Outline: as §1

LOK = molecular target: T21, LOK (Homo sapiens, UniProt O94804); details: 1 uM
T21 construct: purchased Ambit KINOMEscan (DiscoverX)
Outline: as §1

LTK = molecular target: T22, LTK (Homo sapiens, UniProt P29376); details: 1 uM
T22 construct: purchased Ambit KINOMEscan (DiscoverX)
Outline: as §1

MAST1 = molecular target: T23, MAST1 (Homo sapiens, UniProt Q9Y2H9); details: MAST1, 1 uM
T23 construct: purchased Ambit KINOMEscan (DiscoverX)
Outline: as §1

MEK1 = molecular target: T24, MEK1 (Homo sapiens, UniProt Q02750); details: MEK1, 1 uM
T24 construct: purchased Ambit KINOMEscan (DiscoverX)
Outline: as §1

MKNK2 = molecular target: T25, MKNK2 (Homo sapiens, UniProt Q9HBH9); details: MKNK2, 1 uM
T25 construct: purchased Ambit KINOMEscan (DiscoverX)
Outline: as §1

MST1 = molecular target: T26, MST1 (Homo sapiens, UniProt Q13043); details: MST1, 1 uM
T26 construct: purchased Ambit KINOMEscan (DiscoverX)
Outline: as §1

PDGFRA = molecular target: T27, PDGFRA (Homo sapiens, UniProt P16234); details: 1 uM
T27 construct: purchased Ambit KINOMEscan (DiscoverX)
Outline: as §1

PFTK1 = molecular target: T28, PFTK1 (Homo sapiens, UniProt O94921); details: PFTK1, 1 uM
T28 construct: purchased Ambit KINOMEscan (DiscoverX)
Outline: as §1

PIK3CA = molecular target: T29, PIK3CA (Homo sapiens, UniProt P42336); details: 1 uM
T29 construct: purchased Ambit KINOMEscan (DiscoverX)
Outline: as §1

PIK3CA(E542K) = molecular target: T30, PIK3CA(E542K) (Homo sapiens, UniProt P42336, E542K); details: 1 uM
T30 construct: purchased Ambit KINOMEscan (DiscoverX)
Outline: as §1

PKAC-alpha = molecular target: T31, PKAC-alpha (Homo sapiens, UniProt P17612); details: 1 uM
T31 construct: purchased Ambit KINOMEscan (DiscoverX)
Outline: as §1

PKN2 = molecular target: T32, PKN2 (Homo sapiens, UniProt Q16513); details: PKN2, 1 uM
T32 construct: purchased Ambit KINOMEscan (DiscoverX)
Outline: as §1

PLK4 = molecular target: T33, PLK4 (Homo sapiens, UniProt O00444); details: PLK4, 1 uM
T33 construct: purchased Ambit KINOMEscan (DiscoverX)
Outline: as §1

PRKCQ = molecular target: T34, PRKCQ (Homo sapiens, UniProt Q04759); details: 1 uM
T34 construct: purchased Ambit KINOMEscan (DiscoverX)
Outline: as §1

PRKG2 = molecular target: T35, PRKG2 (Homo sapiens, UniProt Q13237); details: PRKG2, 1 uM
T35 construct: purchased Ambit KINOMEscan (DiscoverX)
Outline: as §1

PYK2 = molecular target: T36, PYK2 (Homo sapiens, UniProt Q14289); details: PYK2, 1 uM
T36 construct: purchased Ambit KINOMEscan (DiscoverX)
Outline: as §1

RIOK3 = molecular target: T37, RIOK3 (Homo sapiens, UniProt O14730); details: RIOK3, 1 uM
T37 construct: purchased Ambit KINOMEscan (DiscoverX)
Outline: as §1

ROCK1 = molecular target: T38, ROCK1 (Homo sapiens, UniProt Q13464); details: for % binding compared to no inhibitor control: ROCK1, 1 uM
T38 construct: purchased Ambit KINOMEscan (DiscoverX)
Outline: as §1

SRPK1 = molecular target: T39, SRPK1 (Homo sapiens, UniProt Q96SB4); details: SRPK1, 1 uM
T39 construct: purchased Ambit KINOMEscan (DiscoverX)
Outline: as §1

TRKC = molecular target: T40, TRKC (Homo sapiens, UniProt Q16288); details: 1 uM
T40 construct: purchased Ambit KINOMEscan (DiscoverX)
Outline: as §1

T38 sequence (Q13464 whole entry): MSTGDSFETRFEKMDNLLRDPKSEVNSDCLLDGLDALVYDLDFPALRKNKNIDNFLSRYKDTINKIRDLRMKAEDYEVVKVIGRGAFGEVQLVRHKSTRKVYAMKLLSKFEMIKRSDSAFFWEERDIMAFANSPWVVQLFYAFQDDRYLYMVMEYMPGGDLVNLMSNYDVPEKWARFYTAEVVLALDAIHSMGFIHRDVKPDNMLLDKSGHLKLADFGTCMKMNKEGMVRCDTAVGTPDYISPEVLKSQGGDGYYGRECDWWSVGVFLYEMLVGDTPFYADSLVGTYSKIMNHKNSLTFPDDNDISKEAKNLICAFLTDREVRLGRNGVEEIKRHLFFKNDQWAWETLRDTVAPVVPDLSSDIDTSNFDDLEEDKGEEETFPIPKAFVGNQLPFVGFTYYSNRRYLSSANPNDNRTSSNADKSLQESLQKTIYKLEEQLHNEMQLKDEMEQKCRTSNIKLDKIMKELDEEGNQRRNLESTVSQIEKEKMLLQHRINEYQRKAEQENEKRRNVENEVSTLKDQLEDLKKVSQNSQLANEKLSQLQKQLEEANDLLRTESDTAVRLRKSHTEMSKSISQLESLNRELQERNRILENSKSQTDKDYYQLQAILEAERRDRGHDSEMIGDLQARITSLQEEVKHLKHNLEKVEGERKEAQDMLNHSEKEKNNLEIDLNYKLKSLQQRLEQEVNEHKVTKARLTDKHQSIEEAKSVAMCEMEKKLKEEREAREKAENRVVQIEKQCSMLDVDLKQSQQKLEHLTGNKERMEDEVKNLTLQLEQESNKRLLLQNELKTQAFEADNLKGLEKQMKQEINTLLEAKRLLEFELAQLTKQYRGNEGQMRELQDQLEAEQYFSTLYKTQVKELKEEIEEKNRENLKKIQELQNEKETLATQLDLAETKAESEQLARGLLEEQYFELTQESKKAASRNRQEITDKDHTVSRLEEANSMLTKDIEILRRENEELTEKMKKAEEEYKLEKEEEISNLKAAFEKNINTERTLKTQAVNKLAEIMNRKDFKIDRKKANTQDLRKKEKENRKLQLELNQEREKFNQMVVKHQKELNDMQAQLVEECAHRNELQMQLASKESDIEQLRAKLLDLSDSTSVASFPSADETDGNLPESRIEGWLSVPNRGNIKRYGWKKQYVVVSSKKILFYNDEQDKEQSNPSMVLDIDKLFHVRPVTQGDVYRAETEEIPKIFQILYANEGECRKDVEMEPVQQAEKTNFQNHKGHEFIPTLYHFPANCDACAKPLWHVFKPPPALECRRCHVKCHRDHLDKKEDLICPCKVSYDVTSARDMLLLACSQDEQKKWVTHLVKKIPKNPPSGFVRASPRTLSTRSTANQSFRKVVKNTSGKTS
T10 sequence (Q9HCP0 whole entry): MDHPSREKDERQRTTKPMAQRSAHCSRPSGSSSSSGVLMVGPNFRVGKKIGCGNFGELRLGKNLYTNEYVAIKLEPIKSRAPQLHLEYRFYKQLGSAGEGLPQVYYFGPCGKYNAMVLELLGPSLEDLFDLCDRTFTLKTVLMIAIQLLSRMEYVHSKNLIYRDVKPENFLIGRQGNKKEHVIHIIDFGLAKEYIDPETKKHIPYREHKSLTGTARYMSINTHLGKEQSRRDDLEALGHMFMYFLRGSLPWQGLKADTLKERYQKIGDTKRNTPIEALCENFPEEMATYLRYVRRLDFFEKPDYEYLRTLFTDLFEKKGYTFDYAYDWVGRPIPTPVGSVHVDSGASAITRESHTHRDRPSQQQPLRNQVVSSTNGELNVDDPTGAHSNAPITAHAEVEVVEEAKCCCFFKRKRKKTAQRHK
T3 sequence (P31751 whole entry): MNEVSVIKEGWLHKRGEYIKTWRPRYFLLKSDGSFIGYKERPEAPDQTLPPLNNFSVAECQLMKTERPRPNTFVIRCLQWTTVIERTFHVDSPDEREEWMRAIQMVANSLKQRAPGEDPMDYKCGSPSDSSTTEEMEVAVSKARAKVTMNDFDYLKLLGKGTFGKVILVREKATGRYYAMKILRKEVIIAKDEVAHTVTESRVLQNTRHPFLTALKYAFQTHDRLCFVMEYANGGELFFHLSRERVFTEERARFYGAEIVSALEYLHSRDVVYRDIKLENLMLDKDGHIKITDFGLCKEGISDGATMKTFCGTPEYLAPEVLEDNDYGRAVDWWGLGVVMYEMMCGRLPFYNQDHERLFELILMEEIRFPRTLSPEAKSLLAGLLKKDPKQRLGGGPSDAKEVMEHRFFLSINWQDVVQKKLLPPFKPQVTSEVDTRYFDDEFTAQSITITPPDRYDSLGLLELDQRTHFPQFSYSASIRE
T33 sequence (O00444 whole entry): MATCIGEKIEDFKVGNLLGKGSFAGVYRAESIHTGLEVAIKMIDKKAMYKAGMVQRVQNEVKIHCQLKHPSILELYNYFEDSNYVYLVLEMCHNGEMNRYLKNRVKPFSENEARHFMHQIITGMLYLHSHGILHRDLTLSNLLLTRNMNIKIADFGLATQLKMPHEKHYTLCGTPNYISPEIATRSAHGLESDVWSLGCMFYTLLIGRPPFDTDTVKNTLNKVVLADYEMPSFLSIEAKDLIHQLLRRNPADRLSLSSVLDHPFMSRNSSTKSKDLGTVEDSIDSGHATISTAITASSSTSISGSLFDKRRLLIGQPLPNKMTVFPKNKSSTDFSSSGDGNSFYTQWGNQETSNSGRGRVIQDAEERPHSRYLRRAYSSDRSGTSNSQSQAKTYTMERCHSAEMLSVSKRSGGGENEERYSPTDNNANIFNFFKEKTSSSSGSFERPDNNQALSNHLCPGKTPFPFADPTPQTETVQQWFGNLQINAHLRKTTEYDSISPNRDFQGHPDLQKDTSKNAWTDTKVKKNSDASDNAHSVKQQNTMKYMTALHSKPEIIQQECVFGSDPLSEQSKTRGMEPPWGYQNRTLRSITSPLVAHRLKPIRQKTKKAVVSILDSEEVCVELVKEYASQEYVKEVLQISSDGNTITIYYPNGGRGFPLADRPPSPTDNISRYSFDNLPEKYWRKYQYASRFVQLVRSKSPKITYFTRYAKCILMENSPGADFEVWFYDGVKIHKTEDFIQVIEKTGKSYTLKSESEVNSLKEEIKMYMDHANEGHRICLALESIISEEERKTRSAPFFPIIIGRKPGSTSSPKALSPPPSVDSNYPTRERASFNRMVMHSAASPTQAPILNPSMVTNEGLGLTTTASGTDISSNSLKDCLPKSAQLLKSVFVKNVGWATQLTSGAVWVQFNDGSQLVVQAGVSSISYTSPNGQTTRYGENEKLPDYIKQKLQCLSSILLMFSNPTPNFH
T39 sequence (Q96SB4 whole entry): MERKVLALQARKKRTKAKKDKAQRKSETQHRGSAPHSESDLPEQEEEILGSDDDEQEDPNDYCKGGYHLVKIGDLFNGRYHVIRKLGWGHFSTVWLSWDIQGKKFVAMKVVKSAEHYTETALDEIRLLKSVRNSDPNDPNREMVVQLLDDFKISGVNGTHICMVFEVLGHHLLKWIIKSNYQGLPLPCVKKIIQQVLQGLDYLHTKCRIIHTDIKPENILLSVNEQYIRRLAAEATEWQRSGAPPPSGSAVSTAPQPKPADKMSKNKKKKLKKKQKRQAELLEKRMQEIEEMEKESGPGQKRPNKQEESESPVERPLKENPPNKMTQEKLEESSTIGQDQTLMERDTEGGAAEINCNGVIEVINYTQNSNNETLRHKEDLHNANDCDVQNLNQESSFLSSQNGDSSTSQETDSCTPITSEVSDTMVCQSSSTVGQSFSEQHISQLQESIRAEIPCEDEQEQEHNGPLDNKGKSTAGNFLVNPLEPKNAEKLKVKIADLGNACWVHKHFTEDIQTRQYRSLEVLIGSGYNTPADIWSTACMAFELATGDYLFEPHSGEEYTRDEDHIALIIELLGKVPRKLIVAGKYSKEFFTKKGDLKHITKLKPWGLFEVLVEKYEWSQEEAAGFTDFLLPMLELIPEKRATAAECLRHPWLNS
T32 sequence (Q16513 whole entry): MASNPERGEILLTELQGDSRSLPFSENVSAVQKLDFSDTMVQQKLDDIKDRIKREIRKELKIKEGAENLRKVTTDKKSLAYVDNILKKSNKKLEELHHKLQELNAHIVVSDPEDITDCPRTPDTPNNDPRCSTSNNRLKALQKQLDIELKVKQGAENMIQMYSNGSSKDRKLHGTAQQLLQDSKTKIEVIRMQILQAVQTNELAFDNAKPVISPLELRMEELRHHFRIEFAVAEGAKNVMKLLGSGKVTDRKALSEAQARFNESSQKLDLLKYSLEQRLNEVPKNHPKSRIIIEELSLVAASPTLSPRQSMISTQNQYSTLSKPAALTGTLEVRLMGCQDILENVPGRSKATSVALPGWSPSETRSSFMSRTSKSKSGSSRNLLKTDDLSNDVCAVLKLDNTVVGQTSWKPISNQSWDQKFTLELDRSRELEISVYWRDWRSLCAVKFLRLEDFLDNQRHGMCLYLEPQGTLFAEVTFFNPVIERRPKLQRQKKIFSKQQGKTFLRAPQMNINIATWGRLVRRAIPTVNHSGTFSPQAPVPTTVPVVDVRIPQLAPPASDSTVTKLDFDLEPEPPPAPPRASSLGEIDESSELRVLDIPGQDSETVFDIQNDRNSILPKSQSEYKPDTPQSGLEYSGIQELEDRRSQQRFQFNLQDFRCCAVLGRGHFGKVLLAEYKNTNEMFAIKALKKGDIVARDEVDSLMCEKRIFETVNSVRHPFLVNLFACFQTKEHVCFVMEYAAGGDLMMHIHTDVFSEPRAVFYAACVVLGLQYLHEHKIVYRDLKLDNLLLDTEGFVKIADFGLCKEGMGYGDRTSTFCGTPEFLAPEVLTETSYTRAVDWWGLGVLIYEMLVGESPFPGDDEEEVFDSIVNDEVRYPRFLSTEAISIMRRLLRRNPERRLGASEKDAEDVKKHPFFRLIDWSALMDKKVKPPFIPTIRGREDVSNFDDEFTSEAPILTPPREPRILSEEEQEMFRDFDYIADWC

For `COc1ccc(-c2cc3nccn3c(Nc3ncccc3C(N)=O)n2)cc1OC.Cl.Cl` [BAY61-3606, 2-[7-(3,4-dimethoxyphenyl)-imidazo [1,2-c]pyrimidin-5-ylamino] nicotinamide dihydrochloride, reference compound], the “% binding compared to no inhibitor control” value (ACVR2B) was 77%, the “% binding compared to no inhibitor control” value (ADCK3) was 99% and the “% binding compared to no inhibitor control” value (AKT2) was 79%. For the same molecule, the “% binding compared to no inhibitor control” value (ASK2) was 81%, the “% binding compared to no inhibitor control” value (AURKB) was 69% and the “% binding compared to no inhibitor control” value (AXL) was 92%. For the same molecule, the “% binding compared to no inhibitor control” value (BTK) was 50%, the “% binding compared to no inhibitor control” value (CDC2L2) was 100% and the “% binding compared to no inhibitor control” value (CDK11) was 100%. The “% binding compared to no inhibitor control” value (CSNK1G1) was 84%, the “% binding compared to no inhibitor control” value (DRAK2) was 15% and the “% binding compared to no inhibitor control” value (DYRK2) was 24%. The “% binding compared to no inhibitor control” value (EGFR(G719S)) was 71%, the “% binding compared to no inhibitor control” value (EPHA6) was 97% and the “% binding compared to no inhibitor control” value (ERK5) was 87%. The “% binding compared to no inhibitor control” value (FES) was 88%, the “% binding compared to no inhibitor control” value (FLT3(D835H)) was 7.9% and the “% binding compared to no inhibitor control” value (HUNK) was 67%. For the same molecule, the “% binding compared to no inhibitor control” value (JNK3) was 41%, the “% binding compared to no inhibitor control” value (KIT(V559D)) was 3% and the “% binding compared to no inhibitor control” value (LOK) was 83%. The “% binding compared to no inhibitor control” value (LTK) was 46%, the “% binding compared to no inhibitor control” value (MAST1) was 52% and the “% binding compared to no inhibitor control” value (MEK1) was 100%. The “% binding compared to no inhibitor control” value (MKNK2) was 1.7%, the “% binding compared to no inhibitor control” value (MST1) was 85% and the “% binding compared to no inhibitor control” value (PDGFRA) was 67%. For the same molecule, the “% binding compared to no inhibitor control” value (PFTK1) was 100%, the “% binding compared to no inhibitor control” value (PIK3CA) was 92% and the “% binding compared to no inhibitor control” value (PIK3CA(E542K)) was 99%. For the same molecule, the “% binding compared to no inhibitor control” value (PKAC-alpha) was 90%, the “% binding compared to no inhibitor control” value (PKN2) was 34% and the “% binding compared to no inhibitor control” value (PLK4) was 35%. The “% binding compared to no inhibitor control” value (PRKCQ) was 88%, the “% binding compared to no inhibitor control” value (PRKG2) was 70% and the “% binding compared to no inhibitor control” value (PYK2) was 94%. For the same molecule, the “% binding compared to no inhibitor control” value (RIOK3) was 98%, the “% binding compared to no inhibitor control” value (ROCK1) was 3.2% and the “% inhibition ATP binding” value (ROCK1; ROCK1, KINOMEscan, 1 μM) was 96.8%. The “% binding compared to no inhibitor control” value (SRPK1) was 88% and the “% binding compared to no inhibitor control” value (TRKC) was 92%.

With `COc1ccccc1Nc1nc(-c2ccc(OC)c(OC)c2)cc2nccn12` [BAY derivative 6] the “% binding compared to no inhibitor control” value (ACVR2B) was 100%, the “% binding compared to no inhibitor control” value (ADCK3) was 87% and the “% binding compared to no inhibitor control” value (AKT2) was 100%. The “% binding compared to no inhibitor control” value (ASK2) was 100%, the “% binding compared to no inhibitor control” value (AURKB) was 68% and the “% binding compared to no inhibitor control” value (AXL) was 89%. The “% binding compared to no inhibitor control” value (BTK) was 60%, the “% binding compared to no inhibitor control” value (CDC2L2) was 100% and the “% binding compared to no inhibitor control” value (CDK11) was 100%. For the same molecule, the “% binding compared to no inhibitor control” value (CSNK1G1) was 94%, the “% binding compared to no inhibitor control” value (DRAK2) was 100% and the “% binding compared to no inhibitor control” value (DYRK2) was 56%. For the same molecule, the “% binding compared to no inhibitor control” value (EGFR(G719S)) was 100%, the “% binding compared to no inhibitor control” value (EPHA6) was 100% and the “% binding compared to no inhibitor control” value (ERK5) was 100%. For the same molecule, the “% binding compared to no inhibitor control” value (FES) was 100%, the “% binding compared to no inhibitor control” value (FLT3(D835H)) was 42% and the “% binding compared to no inhibitor control” value (HUNK) was 75%. For the same molecule, the “% binding compared to no inhibitor control” value (JNK3) was 100%, the “% binding compared to no inhibitor control” value (KIT(V559D)) was 54% and the “% binding compared to no inhibitor control” value (LOK) was 53%. The “% binding compared to no inhibitor control” value (LTK) was 30%, the “% binding compared to no inhibitor control” value (MAST1) was 74% and the “% binding compared to no inhibitor control” value (MEK1) was 100%. For the same molecule, the “% binding compared to no inhibitor control” value (MKNK2) was 100%, the “% binding compared to no inhibitor control” value (MST1) was 87% and the “% binding compared to no inhibitor control” value (PDGFRA) was 100%. For the same molecule, the “% binding compared to no inhibitor control” value (PFTK1) was 100%, the “% binding compared to no inhibitor control” value (PIK3CA) was 100% and the “% binding compared to no inhibitor control” value (PIK3CA(E542K)) was 100%. For the same molecule, the “% binding compared to no inhibitor control” value (PKAC-alpha) was 72%, the “% binding compared to no inhibitor control” value (PKN2) was 91% and the “% binding compared to no inhibitor control” value (PLK4) was 100%. The “% binding compared to no inhibitor control” value (PRKCQ) was 100%, the “% binding compared to no inhibitor control” value (PRKG2) was 100% and the “% binding compared to no inhibitor control” value (PYK2) was 100%. For the same molecule, the “% binding compared to no inhibitor control” value (RIOK3) was 80%, the “% binding compared to no inhibitor control” value (ROCK1) was 81% and the “% binding compared to no inhibitor control” value (SRPK1) was 75%. For the same molecule, the “% binding compared to no inhibitor control” value (TRKC) was 98%.
